This is an account of results in patent US10501454B2, “Monocyclic β-lactam-siderophore conjugate, and preparation method and use thereof” (Shanghai Institute of Materia Medica, Chinese Academy of …, priority 2016, dated 2019).

Structures can show the parent of a compound that is named as a salt.

A word on the MRT: it is a mean duration of stay, worked out from the concentration-time curve. In general, ED50 refers to the midpoint of the dose-response relation.

A short description of data set [1]: Pharmacokinetic test in rats, intravenous. Type of data set: in vivo. The note with it: SD rats, intravenous 1.0 mg/kg, plasma. The protocol: 2.1.2 Test animals: 6 SD rats, male, weight: 200-220 g.
2.1.3 Drug Preparation: an appropriate amount of the sample was weighed and prepared into a 0.2 mg/mL solution with water for injection.
2.1.4 Administration of the drug: 6 SD rats, male, weight: 200-220 g, were randomly divided into two groups, 3 rats in each group. […] The intravenous dose was 1.0 mg/kg, and the intravenous volume was 5 mL/kg.
Intravenous administration: 2 min, 5 min, 15 min, 30 min, 45 min, 1 h, 1.5 h and 3 h after administration. At the above set time points, 0.3 ml of venous blood was taken from the posterior venous plexus of the rat eye, placed in a heparinized tube, centrifuged at 11,000 rpm for 5 min, then the plasma was separated and stored in a refrigerator at −20° C. All of the rats were fed 2 hours after administration.
After administration, the pharmacokinetic parameters were calculated using a non-compartmental model of WinNonlin 5.3 software (Pharsight, USA).

Data set [2] deals with multidrug-resistant Klebsiella pneumoniae KR15-4 (KPC2). Put plainly: In vivo efficacy in mice systemically infected with multidrug-resistant Klebsiella pneumoniae KR15-4 (KPC2). The settings on record: Klebsiella pneumoniae; Kunming mice, intraperitoneal infection, drug s.c. 0.5 h and 4 h after infection, deaths over 7 days, Bliss method; read-out: ED50 Subcutaneous injection. The protocol:
4.1 Test strains: clinically isolated pathogenic multidrug-resistant Klebsiella pneumoniae KR15-4 (KPC2), provided by Sichuan Primed Shines Bio-tech Co., Ltd.
4.2 Test animals: Kunming mice, age: 4 to 5 weeks, weight: 18 to 22 g, half male, half female, SPF grade.
4.3 Test methods: Mice were randomly divided into several groups, 5 mice for each group, half male and half female, and 4 doses for each test drug: 12.5, 25, 50 and 100 mg/kg. The mice were intraperitoneally injected with 0.5 mL of 3.0×10^6 CFU/mL bacterial suspension for each mouse, and subcutaneously injected with the drug at the designed dose 0.5 h and 4 h after infection. The subcutaneous injection volume was 0.2 ml/20 g mouse weight; the number of deaths in mice was observed and recorded for 7 consecutive days. According to the number of deaths in mice, the half effective dose ED50 was calculated according to the Bliss method using the DAS 1.0 software, edited by Sun Ruiyuan et al.

As for `CC(C)C(O/N=C(\C(=O)N[C@@H]1C(=O)N(OS(=O)(=O)O)C1(C)C)c1csc(N)n1)c1cc(=O)c(O)cn1O` (stereo partly drawn) [Compound 12, (3S)-3-((Z)-2-(2-aminothiazol-4-yl)-2-((1-(1,5-dihydroxy-4-oxo-1,4-dihydropyridin-2-yl)methylisopropyloxy)imine)acetamido)-2,2-dimethyl-4-oxoazetidine-1-hydrogen sulfate], in data set [1], the “Clearance CL” value came out at 11 ± 5.5 mL/min/kg and the “Half-life T1/2” value was found to be 27 ± 6.6 min. In addition, in data set [1] (male, rat, in vivo, read-out: Apparent Distribution Volume Vss), the Vd came to 0.3 ± 0.03 L/kg. Further, in data set [1] (male, rat, in vivo, read-out: Area Under the Curve AUC0-4), the AUC(0-t) worked out at 1730 ± 697 ng·h/mL. In data set [1] (male, rat, read-out: Residence Time MRT), the mean residence time (MRT) was 30.6 ± 10.8 min. The ED50 in data set [2] worked out at 10.2 mg/kg.
